Measured values as given in US20170165247A1, “CRYSTALLINE COMPOUNDS OF DABIGATRAN ETEXILATE” (OLON S.p.A., priority 2014, published 2017).

What was measured:
[1] = Kinetic dissolution of tablet in phosphate buffer pH 4.5; format: physicochemical; settings: for Average Conc.: tablet dissolution
Method: Kinetic Dissolution Experimental Conditions for Tablet Dissolution Dissolution Medium: […] Temperature: 37±0.5° C. Volume: 80 mL Time: 2 hrs Sample: Tablet (weight 200 mg) Stirring: Paddle 100 rpm Sampling time: 5 min, 15 min, 25 min, 35 min, 45 min, 60 min and 120 min. Repetitions: 2 for each experiment At the time fixed, withdraw 3 mL from each vessel. Reinstate the withdrawn volume. Filter each solution with 0.20 μm filter, discarding the first 1 mL. […] Each withdrawal was analyzed without further dilution. The sample was analyzed using the chromatographic conditions reported herein.

[2] = Thermodynamic solubility test in buffer solution (HPLC); format: physicochemical; settings: buffer pH 4.5, 37° C., 24 hours
Method: The solubility tests were performed in a buffer solution at ph 4.5 and compared with the solubility data of dabigatran etexilate mesylate (commercial form).
Thermodynamic Solubility Tests
The sample (approx. 50 mg) was weighted in a vial and left under magnetic stirring (approx. 300 rpm) in approx. 2 mL of buffer solution at 37° C. for 24 hours. The experiments were carried out at pH 4.5 and pH 6.8. The suspensions were filtered with 0.45 μm filter and analyzed by HPLC method previously reported. From the obtained area an opportune dilution of the sample was performed to obtain a value consistent with the Calibration Curve. Every diluted sample was analyzed by HPLC and the results were interpolated by the calibration curve.
Each experiment was replicated twice.

| Compound | Average Conc. ([1]; pH 4.5, time 5 min) | Average Conc. ([1]; pH 4.5, time 15 min) | Average Conc. ([1]; pH 4.5, time 25 min) | Average Conc. ([1]; pH 4.5, time 35 min) | Average Conc. ([1]; pH 4.5, time 45 min) | Average Conc. ([1]; pH 4.5, time 60 min) | Average Conc. ([1]; pH 4.5, time 120 min) | dissolution rate compared with the mesylate salt (in words) ([1]; kinetic dissolution, phosphate buffer pH 4.5, 37° C.) | dissolution rate, times higher than the mesylate derivative ([1]; tablet, phosphate buffer pH 4.5, 37° C., paddle 100 rpm, compared with mesylate) | Average Conc. [2] |
| --- | --- | --- | --- | --- | --- | --- | --- | --- | --- | --- |
| CCCCCCOC(=O)N=C(N)c1ccc(NCc2nc3cc(C(=O)N(CCC(=O)OCC)c4ccccn4)ccc3n2C)cc1.O=C(O)c1cc(O)c(O)c(O)c1 [Dabigatran/gallate 1/1] | 10.01 | 28.10 | 44.94 | 62.45 | 75.18 | 90.21 | 106.50 |  |  |  |
| CCCCCCOC(=O)NC(=N)c1ccc(NCc2nc3cc(C(=O)N(CCC(=O)OCC)c4ccccn4)ccc3n2C)cc1.CS(=O)(=O)O [Dabigatran/mesylate 1/1] | 6.86 | 9.09 | 11.40 | 13.28 | 15.96 | 18.55 | 26.44 |  |  |  |
| CCCCCCOC(=O)N=C(N)c1ccc(NCc2nc3cc(C(=O)N(CCC(=O)OCC)c4ccccn4)ccc3n2C)cc1.O=C(O)c1cc(=O)[nH]c(=O)[nH]1 [Dabigatran/orotate 1/1] | 8.76 | 11.06 | 12.26 | 13.74 | 15.52 | 17.21 | 28.89 |  |  |  |
| Dabigatran Etexilate Orotate Anhydrous Form a (Dabigatran/Orotic Acid 1/1 Mol/Mole) |  |  |  |  |  |  |  | comparable | more than 8.7 times |  |
| Gallate |  |  |  |  |  |  |  |  |  | 0.40 µg/mL |
